What was measured:
Assay type in all cases: in vivo, rat
[1] = system: myocardial infarction in adult rats; assay: Fractional shortening (echocardiography) after myocardial infarction
Experimental: The p38 inhibitors were tested for in vivo effect following myocardial infarct. For the evaluation of left ventricular function, transthoracic echocardiogram can be performed on the rats after myocardial infarction 1 day or 14 days right. Rats can be anesthetized with 4-5% isoflurane in an induction chamber. The chest can be shaved, and the rats can be placed in dorsal decubitus position and intubated for continuous ventilation. 1-2% isoflurane can be continuously supplied via a mask. 3 electrodes can be adhered to their paws to record the electrocardiographic tracing simultaneously with the cardiac image identifying the phase of a cardiac cycle.
Echocardiograms can be performed with a commercially available echocardiography system equipped with 7.5 MHz phased-array transducer (Philips-Hewlett-Packard). The transducer can be positioned on the left anterior side of the chest. Longitudinal images of the heart can be obtained, including the left ventricle, atrium, the mitral valve and the aorta, followed by the cross-sectional images from the plane of the base to the left ventricular apical region. M-mode tracings can be obtained at the level below the tip of the mitral valve leaflets at the level of the papillary muscles. Fractional shorting (FS) can be calculated as a measure of systolic function, according to the M-mode tracing from the cross-sectional view: maximal LV end-diastolic diameter (at the time of maximal cavity dimension), minimal LV end-systolic diameter (at the time of maximum anterior motion of the posterior wall), FS (%)={(LVEDD−LVESD)/LVEDD}×100.
(§1) To determine whether p38 inhibition/FGF1 stimulation can induce cardiomyocyte proliferation in vivo and whether it has a positive effect on cardiac function after cardiac injury we created myocardial infarctions (MI) in adult rats (250 g) by coronary artery ligation. The p38 inhibitor SB203580 HCl or its vehicle, saline, were injected intraperitoneal every three days for the first month of the study. FGF1 or its carrier BSA was injected mixed with self-assembling peptides once into the infarct border zone immediately after coronary artery ligation. We injecting a total of 80 μl of 400 ng/ml FGF1, given at 3 different injection sites, into 400 mg of infarcted myocardium estimated to deliver a FGF 1 concentration to the cardiomyocytes of approximately 50 to 100 ng/ml. Animals were analyzed 24 hours, 2 weeks, and 3 month after surgery. We performed two blinded and randomized studies using 62 rats for the 2 week and 61 rats for the 3 month experiment, with at least 10 animals in each experimental group. Animals were treated with saline plus BSA (control), SB203580 HCl plus BSA (p38i), saline plus FGF1 (FGF1), or SB203580 HCl plus FGF1 (p38i/FGF1).
Animal experiments were performed in accordance with guidelines of Children's Hospital in Boston and were approved by the Harvard Medical School Standing Committee on Animals. Myocardial infarction (MI) was produced in ˜250 gm male Sprague-Dawley rats (Charles River and Harlan) as described previously (Hsieh et al., 2006). Briefly, rats were anesthetized by pentobarbital and, following tracheal intubation, the hearts were exposed via left thoracotomy. The left coronary artery was identified after pericardiotomy and was ligated by suturing with 6-0 prolene at the location ˜3mm below the left atrial appendix. For the sham operation, suturing was performed without ligation. […]

[2] = system: myocardial infarction in adult rats; assay: Thinning index (ventricular wall thinning) after myocardial infarction
Experimental: To determine whether p38 inhibition/FGF1 stimulation can induce cardiomyocyte proliferation in vivo and whether it has a positive effect on cardiac function after cardiac injury we created myocardial infarctions (MI) in adult rats (250 g) by coronary artery ligation. The p38 inhibitor SB203580 HCl or its vehicle, saline, were injected intraperitoneal every three days for the first month of the study. FGF1 or its carrier BSA was injected mixed with self-assembling peptides once into the infarct border zone immediately after coronary artery ligation. […] Animals were analyzed 24 hours, 2 weeks, and 3 month after surgery. […]
Ventricular wall thinning is an important parameter of heart function. Thus, we determined the thickness of the ventricular wall after injury. For this purpose we calculated the thinning index (ratio of minimal ventricular wall thickness to maximal thickness of the septum). […]
Scar formation was determined as fibrotic area/(fibrotic+non-fibrotic area) based on all sections. The thinning index is a ratio of the amount of wall thinning in the infarct normalized to the thickness of the septum and is calculated by dividing the minimal infarct wall thickness with maximal septal wall thickness (2 weeks: section 1 to 4, 3 month: section 1 to 6 from base).

[3] = system: myocardial infarction in adult rats; assay: Vessel density in the scar area after myocardial infarction; settings: rats after MI
Experimental: as §1, with “We performed two blinded and randomized studies using 62 rats for the 2 week and 61 rats for the 3 month experiment, with at least 10 animals in each experimental group. Animals were treated with saline plus BSA (control), SB203580 HCl plus BSA (p38i), saline plus FGF1 (FGF1), or SB203580 HCl plus FGF1 (p38i/FGF1).” left out
One possible explanation is the angiogenic effect of FGF1. To determine the effect of our treatments on vascularization we determined the vessel density in the scar area. […]
Hearts were embedded in tissue-freezing medium (Fisher) without fixation, frozen in 2-methylbutane (cooled in liquid nitrogen), stored at −80° C., and finally sectioned (20 μm; Leica 3050S). […] Immune complexes were detected with ALEXA 488-, or ALEXA 594-conjugated secondary antibodies (1:400; Molecular Probes). […]

FGF1: growth factor FGF1 (R&D Systems)
improvement of fractional shortening ([1]; 3 month after infarction): maintained | left ventricular fractional shortening ([1]; 24 hours after MI): significantly improved | improvement of fractional shortening ([1]; day 14 after infarction): maintained | left ventricular wall thinning (thinning index) ([2]; 2 weeks): significantly reduced | ventricular wall thinning ([2]; 3 month): significantly improved | vessel density in the scar area [3]: increases significantly
